Tested on: HUVEC/MSC spheroids viability
Assay: Human HUVEC/MSC cell line growth inhibition [KRAS2];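 for viability, T/C: percent of DMSO vehicle control luminescence so 100% = untreated viability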
Conditions: for IC50: curve of first compound; for viability, T/C: stronger effect = lower value
Summary of the method: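 Concentration ranges start near each agent's clinical Cmax, or at 10 microM if none is established, and fall by half-log increments. These ranges are tested as single agents and combinations on endothelial/mesenchymal stem cell spheroids lacking tumour cells.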

[1] = second compound 0.0316 µM, first compound 0.0316 µM
[2] = second compound 0.0316 µM, first compound 0.1 µM
[3] = second compound 0.0316 µM, first compound 0.316 µM
[4] = second compound 0.0316 µM, first compound 1 µM
[5] = second compound 0.0316 µM, first compound 3.16 µM
[6] = second compound 0.0316 µM, first compound 10 µM
[7] = second compound 0.1 µM, first compound 0.0316 µM
[8] = second compound 0.1 µM, first compound 0.1 µM
[9] = second compound 0.1 µM, first compound 0.316 µM
[10] = second compound 0.1 µM, first compound 1 µM
[11] = second compound 0.1 µM, first compound 3.16 µM
[12] = second compound 0.1 µM, first compound 10 µM
[13] = second compound 0.316 µM, first compound 0.0316 µM
[14] = second compound 0.316 µM, first compound 0.1 µM
[15] = second compound 0.316 µM, first compound 0.316 µM
[16] = second compound 0.316 µM, first compound 1 µM
[17] = second compound 0.316 µM, first compound 3.16 µM
[18] = second compound 0.316 µM, first compound 10 µM
[19] = second compound 1 µM, first compound 0.0316 µM
[20] = second compound 1 µM, first compound 0.1 µM
[21] = second compound 1 µM, first compound 0.316 µM
[22] = second compound 1 µM, first compound 1 µM
[23] = second compound 1 µM, first compound 3.16 µM
[24] = second compound 1 µM, first compound 10 µM
[25] = second compound 3.16 µM, first compound 0.0316 µM
[26] = second compound 3.16 µM, first compound 0.1 µM
[27] = second compound 3.16 µM, first compound 0.316 µM
[28] = second compound 3.16 µM, first compound 1 µM
[29] = second compound 3.16 µM, first compound 3.16 µM
[30] = second compound 3.16 µM, first compound 10 µM
[31] = second compound 10 µM, first compound 0.0316 µM
[32] = second compound 10 µM, first compound 0.1 µM
[33] = second compound 10 µM, first compound 0.316 µM
[34] = second compound 10 µM, first compound 1 µM
[35] = second compound 10 µM, first compound 3.16 µM
[36] = second compound 10 µM, first compound 10 µM

CC(=O)Nc1cccc(-n2c(=O)n(C3CC3)c(=O)c3c(Nc4ccc(I)cc4F)n(C)c(=O)c(C)c32)c1 + CNCc1ccccc1-c1csc(C(C)Nc2nc(C)nc3cc(OC)c(OC)cc23)c1
IC50 (second compound 0.0316 µM): 0.0125 µM
IC50 (second compound 0.1 µM): 0.0121 µM
IC50 (second compound 0.316 µM): 0.0132 µM
IC50 (second compound 1 µM): 0.0131 µM
IC50 (second compound 3.16 µM): 0.0132 µM
IC50 (second compound 10 µM): < 9.49e-05 µM
viability, T/C (second compound 0.0316 µM, first compound 94.9 pM): 101%
viability, T/C (second compound 0.0316 µM, first compound 0.0003 µM): 130%
viability, T/C (second compound 0.0316 µM, first compound 0.000949 µM): 113%
viability, T/C (second compound 0.0316 µM, first compound 0.003 µM): 83.6%
viability, T/C (second compound 0.0316 µM, first compound 0.00949 µM): 66.7%
viability, T/C (second compound 0.0316 µM, first compound 0.03 µM): 9.37%
viability, T/C (second compound 0.1 µM, first compound 94.9 pM): 102%
viability, T/C (second compound 0.1 µM, first compound 0.0003 µM): 109%
viability, T/C (second compound 0.1 µM, first compound 0.000949 µM): 95.5%
viability, T/C (second compound 0.1 µM, first compound 0.003 µM): 75.7%
viability, T/C (second compound 0.1 µM, first compound 0.00949 µM): 67%
viability, T/C (second compound 0.1 µM, first compound 0.03 µM): 9.94%
viability, T/C (second compound 0.316 µM, first compound 94.9 pM): 93.6%
viability, T/C (second compound 0.316 µM, first compound 0.0003 µM): 99.6%
viability, T/C (second compound 0.316 µM, first compound 0.000949 µM): 101%
viability, T/C (second compound 0.316 µM, first compound 0.003 µM): 85.9%
viability, T/C (second compound 0.316 µM, first compound 0.00949 µM): 65.4%
viability, T/C (second compound 0.316 µM, first compound 0.03 µM): 13.4%
viability, T/C (second compound 1 µM, first compound 94.9 pM): 86.5%
viability, T/C (second compound 1 µM, first compound 0.0003 µM): 103%
viability, T/C (second compound 1 µM, first compound 0.000949 µM): 92.2%
viability, T/C (second compound 1 µM, first compound 0.003 µM): 84.6%
viability, T/C (second compound 1 µM, first compound 0.00949 µM): 67.2%
viability, T/C (second compound 1 µM, first compound 0.03 µM): 7.22%
viability, T/C (second compound 3.16 µM, first compound 94.9 pM): 84.5%
viability, T/C (second compound 3.16 µM, first compound 0.0003 µM): 132%
viability, T/C (second compound 3.16 µM, first compound 0.000949 µM): 103%
viability, T/C (second compound 3.16 µM, first compound 0.003 µM): 103%
viability, T/C (second compound 3.16 µM, first compound 0.00949 µM): 70.2%
viability, T/C (second compound 3.16 µM, first compound 0.03 µM): 0.49%
viability, T/C (second compound 10 µM, first compound 94.9 pM): 0.38%
viability, T/C (second compound 10 µM, first compound 0.0003 µM): 0.41%
viability, T/C (second compound 10 µM, first compound 0.000949 µM): 0.37%
viability, T/C (second compound 10 µM, first compound 0.003 µM): 0.33%
viability, T/C (second compound 10 µM, first compound 0.00949 µM): 0.36%
viability, T/C (second compound 10 µM, first compound 0.03 µM): 0.28%

COc1cc(Nc2ncc3c(n2)-c2ccc(Cl)cc2C(c2c(F)cccc2OC)=NC3)ccc1C(=O)O + CNCc1ccccc1-c1csc(C(C)Nc2nc(C)nc3cc(OC)c(OC)cc23)c1
IC50 (second compound 0.0316 µM): 9.93 µM
IC50 (second compound 0.1 µM): > 10 µM
IC50 (second compound 0.316 µM): 8.79 µM
IC50 (second compound 1 µM): 9.31 µM
IC50 (second compound 3.16 µM): > 10 µM
IC50 (second compound 10 µM): < 0.0316 µM
viability, T/C [1]: 92.9%
viability, T/C [2]: 104%
viability, T/C [3]: 101%
viability, T/C [4]: 87.3%
viability, T/C [5]: 84.6%
viability, T/C [6]: 49.2%
viability, T/C [7]: 93.2%
viability, T/C [8]: 80.8%
viability, T/C [9]: 98%
viability, T/C [10]: 80.3%
viability, T/C [11]: 84%
viability, T/C [12]: 56.7%
viability, T/C [13]: 71.1%
viability, T/C [14]: 90.8%
viability, T/C [15]: 79.5%
viability, T/C [16]: 73.3%
viability, T/C [17]: 83.7%
viability, T/C [18]: 46.3%
viability, T/C [19]: 75.5%
viability, T/C [20]: 76.6%
viability, T/C [21]: 97.3%
viability, T/C [22]: 74.5%
viability, T/C [23]: 92.4%
viability, T/C [24]: 47.8%
viability, T/C [25]: 101%
viability, T/C [26]: 106%
viability, T/C [27]: 97.8%
viability, T/C [28]: 90.4%
viability, T/C [29]: 100%
viability, T/C [30]: 50.7%
viability, T/C [31]: 0.4%
viability, T/C [32]: 0.4%
viability, T/C [33]: 0.37%
viability, T/C [34]: 0.36%
viability, T/C [35]: 0.41%
viability, T/C [36]: 0.32%

COc1cc2nccc(Oc3ccc(NC(=O)C4(C(=O)Nc5ccc(F)cc5)CC4)cc3)c2cc1OC + CNCc1ccccc1-c1csc(C(C)Nc2nc(C)nc3cc(OC)c(OC)cc23)c1
IC50 (second compound 0.0316 µM): 5.9 µM
IC50 (second compound 0.1 µM): 5.67 µM
IC50 (second compound 0.316 µM): 6.1 µM
IC50 (second compound 1 µM): 4.98 µM
IC50 (second compound 3.16 µM): 1.84 µM
IC50 (second compound 10 µM): < 0.0316 µM
viability, T/C [1]: 87.7%
viability, T/C [2]: 86.5%
viability, T/C [3]: 78.2%
viability, T/C [4]: 65.8%
viability, T/C [5]: 84.2%
viability, T/C [6]: 24.3%
viability, T/C [7]: 67%
viability, T/C [8]: 88.8%
viability, T/C [9]: 87%
viability, T/C [10]: 81%
viability, T/C [11]: 78.2%
viability, T/C [12]: 22.7%
viability, T/C [13]: 86.6%
viability, T/C [14]: 90.9%
viability, T/C [15]: 72%
viability, T/C [16]: 71.2%
viability, T/C [17]: 81.4%
viability, T/C [18]: 27.1%
viability, T/C [19]: 69.6%
viability, T/C [20]: 67.3%
viability, T/C [21]: 66.6%
viability, T/C [22]: 97.6%
viability, T/C [23]: 99.7%
viability, T/C [24]: 3.5%
viability, T/C [25]: 96.7%
viability, T/C [26]: 104%
viability, T/C [27]: 108%
viability, T/C [28]: 115%
viability, T/C [29]: 0.31%
viability, T/C [30]: 0.22%
viability, T/C [31]: 0.36%
viability, T/C [32]: 0.41%
viability, T/C [33]: 0.99%
viability, T/C [34]: 0.46%
viability, T/C [35]: 0.43%
viability, T/C [36]: 0.25%
